Data taken from patent publication US8106236B2, “Triaryl compounds and derivates thereof” (Ortho-McNeil Pharmaceutical, Inc., priority 2006, dated 2012).

Experiments:
Aβ42 [1] = assay: In vivo Aβ42 lowering, mouse; settings: oral dose 30 mpk at 4 hr time point, read-out: Mouse Efficacy % Lowering Aβ 42
Excerpt: (§1) To determine whether acute administration of an Aβ42 lowering agent would reduce Aβ42 levels in vivo, non-transgenic rodents, e.g. mice or rats can be used. Alternatively, two to three month old Tg2576 mice expressing APP695 containing the “Swedish” variant can be used or a transgenic mouse model developed by Dr. Fred Van Leuven (K.U.Leuven, Belgium) and co-workers, with neuron-specific expression of a clinical mutant of the human amyloid precursor protein [V717I] (Moechars et al., 1999 J. Biol. Chem. 274, 6483). […] Animals of this age have high levels of Aβ in the brain but no detectable Aβ deposition. Mice treated with the Aβ42 lowering agent will be examined and compared to those untreated or treated with vehicle and brain levels of soluble Aβ42 and total Aβ would be quantitated by standard techniques, for example, using ELISA. Treatment periods may vary from hours to days and will be adjusted based on the results of the Aβ42 lowering once a time course of onset of effect can be established.
(§2) A typical protocol for measuring Aβ42 lowering in vivo is shown but it is only one of many variations that could be used to optimize the levels of detectable Aβ. For example, aliquots of compounds can be dissolved in DMSO (volume equal to 1/10th of the final formulation volume), vortexed and further diluted (1:10) with a 10% (w/v) hydroxypropyl β cyclodextrin (HBC, Aldrich, Ref N° 33,260-7) solution in PBS, where after they are sonicated for 20 seconds.
(§3) Aβ42 lowering agents may be administered as a single oral dose given three to four hours before sacrifice and analysis or alternatively could be given over a course of days and the animals sacrificed three to four hours after the final dose is given.
(§4) Blood is collected at sacrifice. The blood collection is performed via a heart puncture during anesthesia with a mixture of Ketalar (Ketamin), Rompun (Xylazin 2%) and Atropin (2:1:1) and collected in EDTA treated collection tubes. Blood is centrifuged at 4000 g for 5 minutes at 4° C. and the plasma recovered for analysis.
(§5) The mice are anaesthetized with a mixture of Ketalar (Ketamin), Rompun (Xylazin 2%) and Atropin (2:1:1) and flushed trans-cardially with physiological serum at 4° C.
(§6) The brain is removed from the cranium and hindbrain and forebrain are separated with a cut in the coronal/frontal plane. The cerebellum is removed. The forebrain is divided evenly into left and right hemisphere by using a midline sagital cut.
(§7) One hemisphere is immediately immersed in liquid nitrogen and stored at −70° C. until homogenization for biochemical assays.
(§8) Brains are homogenized using a Potter, a glass tube (detergent free, 2 cm^3) and a mechanical homogenizer (650 rpm). A volume of 6.5×½ brain weight of freshly prepared 20 mM Tris/HCl buffer (pH 8.5) with Proteinase Inhibitors (1 tablet per 50 ml Tris/HCl buffer, Complete™, Roche, Mannheim, Germany) is used as homogenization buffer.
(§9) Samples are transferred from −70° C. into a sample holder with liquid nitrogen and each individual sample is pre-warmed by incubation on the bench for a few seconds prior to homogenization. The homogenates are collected in Beckman centrifuge tubes TLX and collected on ice prior to centrifugation. Between two samples, the Potter and the glass tube are rinsed carefully with distilled water without detergents and dried with absorption paper.
(§10) Samples are centrifuged in a pre-cooled ultracentrifuge (Beckman, Mannheim, Germany) for 1 hour and 20 minutes at 48000 rpm (135.000×g) at 4° C. The supernatant (soluble fraction containing secreted APP and amyloid peptides) is separated from the pellet (membrane fraction containing membrane-bound APP-fragments and plaque-associated amyloid peptides in case of aged mice).
(§11) Small reversed phase columns (C18-Sep-Pack Vac 3 cc cartridges, Waters, Mass., MA) are mounted on a vacuum system and washed with 80% acetonitrile in 0.1% Trifluoroacetic acid (A-TFA) followed with 0.1% TFA twice. […]

Aβ42 [2] = assay: In vivo Aβ42 lowering, rat; settings: oral dose 30 mpk at 4 hr time point
Excerpt: as §1, §2, §3, §4, §5, §6, §7, §8, §9, §10, §11

Compound	inhibition in vivo at 30 mg/kg (Aβ42 [1])	Rat Efficacy % Lowering Aβ 42 (Aβ42 [2])
CC(C)C[C@@H](C(=O)O)c1cc(-c2ccc(C(F)(F)F)cc2)cc(-c2ccc(C(F)(F)F)cc2)c1 [Compound 39, (R)-2-(4,4″-Bis-trifluoromethyl-[1,1′;3′,1″]terphenyl-5′-yl)-4-methyl-pentanoic acid]	50%	27%
CC(C)C[C@H](C(=O)O)c1cc(-c2ccc(C(F)(F)F)cc2)cc(-c2ccc(C(F)(F)F)cc2)c1 [Compound 40, (S)-2-(4,4″-Bis-trifluoromethyl-[1,1′;3′,1″]terphenyl-5′-yl)-4-methyl-pentanoic acid]	40%	40%
CC(C)C[C@@H](C(=O)O)c1cc(-c2ccc(C(F)(F)F)cc2)cc(-c2cc(C(F)(F)F)cc(C(F)(F)F)c2)c1 [Compound 44, (R)-4-Methyl-2-(3,5,4″-tris-trifluoromethyl-[1,1′;3′,1″]terphenyl-5′-yl)-pentanoic acid]	40%	−10%
CC(C)C[C@H](C(=O)O)c1cc(-c2ccc(C(F)(F)F)cc2)cc(-c2ccc(Cl)c(F)c2)c1 [Compound 50, (S)-2-(4-Chloro-3-fluoro-4″-trifluoromethyl-[1,1′;3′,1″]terphenyl-5′-yl)-4-methyl-pentanoic acid]	48%	28%
